Where two headings read alike, the source gives them in different places. One block for each molecule: values may come before it.
Assays:
[1] = both, human, in vivo
[2] = both, human, in vivo; remark: listed apart in the source
Method: (§1) This was a Phase 1, non-randomized, open-label, 2-cohort, cross-over, DDI study in healthy male and female subjects.
(§2) In Cohort 1, a single oral dose 100 mg/25 mg levodopa-carbidopa (Sinemet®) IR was administered alone on Day 1.

[3] = both, human, in vivo; remark: listed apart in the source
Method: as §1
(§3) In Cohort 2, a single oral dose 100 mg/25 mg levodopa-benserazide (Madopar®) IR was administered alone on Day 1.

clinical [4] = conditions: both, human, in vivo, geometric mean t1/2
clinical [5] = conditions: both, human, in vivo
Method: as §1, §2

clinical [6] = conditions: both, human, in vivo; remark: listed apart in the source
Method: as §1, §3

[7] = BIA 28-6156-105: safety and tolerability; conditions: 400 mg moxifloxacin
[8] = BIA 28-6156-105: continuous cardiac monitoring, concentration-QTc analysis; conditions: 400 mg moxifloxacin, positive control
[9] = BIA 28-6156-107 DDI: effect of single-dose Compound A on single-dose PK of carbidopa-levodopa; conditions: both, human, in vivo, oral; for Tmax: Median Tmax, carbidopa
[10] = BIA 28-6156-110 DDI, metformin portion; assay type: in vivo, human
Method: In Cohort 2, a single oral dose 500 mg metformin was administered alone on Day 1. From Day 2 to Day 7, a single daily dose of 60 mg Compound A was administered.

[11] = BIA 28-6156-110 DDI, rosuvastatin portion; assay type: in vivo, human
Method: In Cohort 1, a single oral dose of 10 mg rosuvastatin was administered alone on Day 1. No drug was administered on Day 2. From Day 3 to Day 8, a single daily dose of 60 mg Compound A was administered.

[12] = Parkinson's patients with a GBA-1 mutation; Peterschmitt et al., 2021; cited from earlier work
[13] = 500 mg metformin + Compound A (60 mg daily) vs metformin alone
[14] = 10 mg rosuvastatin + Compound A (60 mg daily) vs rosuvastatin alone

- AUC0-last ratio of geometric least squares means (point estimate) [1]: 0.909
- Cmax ratio of geometric least squares means (point estimate) [1]: 1.031
- decrease of systemic exposure [1]: approximately 9%
- increase of maximal exposure [1]: approximately 3%
- Tmax ([9]; carbidopa-levodopa alone): 2.5 h
- Tmax ([9]; coadministered with Compound A): 2 h
- half-life ([9]; geometric mean t1/2, carbidopa, both treatment conditions): 2 to 2.3 h
SMILES: C[C@@](Cc1ccc(O)c(O)c1)(NN)C(=O)O [carbidopa]

- AUC0-inf ratio of geometric least squares mean, estimate [10, 13]: 0.940
- AUC0-t ratio of geometric least squares mean, estimate [10, 13]: 0.938
- Cmax ratio of geometric least squares mean, estimate [10, 13]: 0.950
- effect of multiple oral doses of Compound A on metformin PK ([10]; single oral dose of metformin): no effect
SMILES: CN(C)C(=N)N=C(N)N [metformin]

- AUC0-inf ratio of geometric least squares mean, estimate [11, 14]: 3.041
- AUC0-t ratio of geometric least squares mean, estimate [11, 14]: 3.437
- Cmax ratio of geometric least squares mean, estimate [11, 14]: 3.467
- increase of rosuvastatin PK ([11]; with Compound A vs alone): about 3 fold
- increased maximal exposure to rosuvastatin, Cmax ([11]; with Compound A vs alone): 347%
- increased systemic exposure to rosuvastatin, AUC0-inf ([11]; with Compound A vs alone): 304%
- increased systemic exposure to rosuvastatin, AUC0-t ([11]; with Compound A vs alone): 344%
SMILES: CC(C)c1nc(N(C)S(C)(=O)=O)nc(-c2ccc(F)cc2)c1/C=C/[C@@H](O)C[C@@H](O)CC(=O)O [rosuvastatin]

More lines, now with the values behind:

SMILES: N[C@@H](Cc1ccc(O)c(O)c1)C(=O)O [Levodopa, levodopa]
- AUC0-inf ratio of geometric least squares means (point estimate) [1]: 1.035
- AUC0-last ratio of geometric least squares means (point estimate) [1]: 1.048
- Cmax ratio of geometric least squares means (point estimate) [1]: 1.061
- Median Tmax [1]: 0.5 h
- AUC(0-t) [2]: 1534 ng·h/mL
- Tmax [2]: 1.00 h
- t1/2 [3]: 2.26 h
- half-life (clinical [4]): 1.7 h
- half-life (clinical [5]): 1.69 h
- Tmax (clinical [6]): 0.77 h
- AUC(0-t) (clinical [6]; AUC0-t): 1940 ng·h/mL

SMILES: COc1c(N2C[C@@H]3CCCN[C@@H]3C2)c(F)cc2c(=O)c(C(=O)O)cn(C3CC3)c12 [Moxifloxacin, moxifloxacin, reference compound]
- Grade 3 (severe) TEAE considered related [7]: hypersensitivity
- effect on ΔΔQTcF (concentration-QTc analysis) [8]: above 5 msec

SMILES: CC(C)(NC(=O)O[C@@H]1CN2CCC1CC2)c1csc(-c2ccc(F)cc2)n1 [venglustat]
- impact on slowing the progression of the condition [12]: no impact on slowing the progression of the condition

Source: patent US20260240851A1, “Treatment of Parkinson's Disease in a Patient Using a Glucocerebrosidase Activator” (BIAL - R&D Investments, S.A., priority 2023, published 2026)
